Laboratory results taken from patent US6413531B1, “Potentiation of biocide activity using a diethanolamide” (Buckman Laboratories International, Inc., priority 1998, dated 2002).

Tested on: Pseudomonas aeruginosa ("Ps. aeruginosa") ATCC 15442
Assay: Antibacterial test, growth/no-growth (MIC) in liquid medium
Format: cell-based
Settings: within the concentration range tested, i.e., up to 2000 ppm
Protocol: The following materials and procedure were used to determine the potentiating effect of a diethanolamide with various biocides.
(1) Pseudomonas aeruginosa (“Ps. aeruginosa”) ATCC 15442 (a bacterium)
NaCl, 8.0 g; glucose, 1.0 g; tryptone, 1.0 g; DI water, 1.0 L.
5 ml of growth medium were suspended in test tubes, and the culture medium was autoclaved at 121° C. for 20 min. Biocide stock aqueous solutions were added in each tube to give the desired biocide-diethanolamide concentrations in parts per million. No biocide was added to the control tubes. All tubes were inoculated by adding 0.1 ml of inoculum to give a bacterial concentration of about 10^6 cells/ml (10^6 spores/ml for fungal test). After each addition, the tubes were shaken vigorously to mix the contents thoroughly. All inoculated tubes were placed at 37° C. for antibacterial test and at 28° C. for antifungal test. Bacterial growth was checked after 5-7 days and fungal growth was checked after 10-14 days.
The MIC of each biocide and diethanolamide acting alone and in combination was determined on a growth-no-growth basis. Tables 1-16 present both the lowest concentrations of each biocide and diethanolamide separately for which there was no growth, and the lowest concentration of biocide in combination with diethanolamide for which there was no growth. […]

(RS)-1- 2-[(2,4-dichlorophenyl)-2-propyl-1,3-dioxalan-2ylmethyl]-1H-1,2,4-triazole [propiconazole]
antibacterial activity: does not have any antibacterial activity
